# Earlier results, collected in patent US20070053983A1 (priority 2005, published 2007).
# System: β-adrenergic receptors
# Details: man; reduced heart rate, cardiac output and exercise systolic pressure; inhibition of isoproterenol-induced and reflex orthostatic tachycardia
smiles,measurement,value
COCCc1ccc(OCC(O)CNC(C)C)cc1 (stereo not shown) [Metoprolol],β-blocking activity,confirmed the β-blocking activity
